Drawing on ChEMBL document CHEMBL1140820, “beta-N-Biaryl ether sulfonamide hydroxamates as potent gelatinase inhibitors: part 2. Optimization of alpha-amino substituents” (Bioorg Med Chem Lett, 2008), this text covers Ratio IC50 and IC50 for 37 molecules.

A short description of assay [1]: Selectivity for MMP9 over MMP2.
The target of assay [2] is 72 kDa type IV collagenase (Homo sapiens, UniProt P08253). In words: Inhibition of MMP2.
In assay [3] the target is Matrix metalloproteinase-9 (Homo sapiens, UniProt P14780). In words: Inhibition of MMP9.
A further assay addresses T1, Interstitial collagenase (Homo sapiens, UniProt P03956).
T1 sequence (P03956 whole entry): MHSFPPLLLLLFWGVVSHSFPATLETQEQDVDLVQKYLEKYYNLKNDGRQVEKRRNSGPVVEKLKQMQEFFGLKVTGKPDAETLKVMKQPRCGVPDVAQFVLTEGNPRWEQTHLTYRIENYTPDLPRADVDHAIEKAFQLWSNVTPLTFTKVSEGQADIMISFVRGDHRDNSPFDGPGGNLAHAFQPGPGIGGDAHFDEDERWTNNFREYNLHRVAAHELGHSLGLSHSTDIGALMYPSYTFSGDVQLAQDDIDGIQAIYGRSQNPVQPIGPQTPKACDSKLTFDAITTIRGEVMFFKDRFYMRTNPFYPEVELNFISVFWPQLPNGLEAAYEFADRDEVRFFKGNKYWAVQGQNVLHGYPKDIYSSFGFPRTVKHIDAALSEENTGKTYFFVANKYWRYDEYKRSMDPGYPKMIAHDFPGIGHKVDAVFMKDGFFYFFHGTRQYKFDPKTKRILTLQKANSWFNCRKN
Description: Inhibition of MMP1.

pIC50: −log10 of the molar value.

Sequence of Matrix metalloproteinase-9 (P14780 whole entry): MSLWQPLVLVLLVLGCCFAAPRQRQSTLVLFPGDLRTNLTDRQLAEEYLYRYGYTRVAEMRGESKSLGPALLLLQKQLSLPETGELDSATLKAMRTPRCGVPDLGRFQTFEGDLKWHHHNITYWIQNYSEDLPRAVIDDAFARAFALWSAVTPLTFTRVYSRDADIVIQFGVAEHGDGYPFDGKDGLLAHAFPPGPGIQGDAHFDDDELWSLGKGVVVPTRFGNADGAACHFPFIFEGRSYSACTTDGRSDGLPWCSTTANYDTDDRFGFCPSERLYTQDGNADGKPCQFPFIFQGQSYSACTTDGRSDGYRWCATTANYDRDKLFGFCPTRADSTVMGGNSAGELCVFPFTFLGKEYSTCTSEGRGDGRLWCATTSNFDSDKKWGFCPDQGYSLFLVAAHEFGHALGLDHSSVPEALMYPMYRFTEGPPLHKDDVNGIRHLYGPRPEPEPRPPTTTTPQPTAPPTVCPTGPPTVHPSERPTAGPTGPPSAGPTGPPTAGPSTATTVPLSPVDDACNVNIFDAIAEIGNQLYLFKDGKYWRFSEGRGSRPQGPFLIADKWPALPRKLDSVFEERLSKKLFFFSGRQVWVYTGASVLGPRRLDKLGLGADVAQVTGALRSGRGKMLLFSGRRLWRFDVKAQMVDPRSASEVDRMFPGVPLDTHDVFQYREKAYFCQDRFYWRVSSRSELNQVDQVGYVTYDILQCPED
Sequence of 72 kDa type IV collagenase (P08253 whole entry): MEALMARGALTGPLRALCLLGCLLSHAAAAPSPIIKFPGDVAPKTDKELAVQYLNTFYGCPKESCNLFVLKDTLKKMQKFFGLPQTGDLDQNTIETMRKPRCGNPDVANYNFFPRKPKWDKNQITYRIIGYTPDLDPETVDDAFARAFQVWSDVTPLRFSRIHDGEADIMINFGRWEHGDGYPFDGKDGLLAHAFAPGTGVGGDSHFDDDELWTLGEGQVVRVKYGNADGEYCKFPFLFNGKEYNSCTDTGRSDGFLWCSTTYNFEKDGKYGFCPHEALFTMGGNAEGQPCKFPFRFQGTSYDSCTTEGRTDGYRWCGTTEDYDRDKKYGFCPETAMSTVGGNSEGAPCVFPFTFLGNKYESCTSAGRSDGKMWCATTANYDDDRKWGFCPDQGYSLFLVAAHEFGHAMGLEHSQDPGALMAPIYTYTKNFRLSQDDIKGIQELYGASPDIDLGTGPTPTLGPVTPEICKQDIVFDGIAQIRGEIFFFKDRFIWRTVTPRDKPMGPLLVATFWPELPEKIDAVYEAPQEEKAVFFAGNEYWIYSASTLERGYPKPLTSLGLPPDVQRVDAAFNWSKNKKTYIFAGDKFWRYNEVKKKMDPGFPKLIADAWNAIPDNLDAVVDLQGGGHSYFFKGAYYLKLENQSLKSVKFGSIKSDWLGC

Regarding `CS(=O)(=O)N(C[C@@H](C(=O)NO)N1CCN(c2ccc(Cl)cc2)CC1)c1ccc(Oc2ccc(C(F)(F)F)cc2)cc1`, the Ratio IC50 in assay [1] worked out at 2.7.
As to `Cc1ccc(Oc2ccc(N(C[C@H](NC(=O)C(C)C)C(=O)NO)S(C)(=O)=O)cc2)cc1`, the pIC50 in assay [2] is 7.15; in assay [3], 8.27. Further, the Ratio IC50 in assay [1] amounted to 13.
As to `CS(=O)(=O)N(C[C@@H](C(=O)NO)N1CCS(=O)(=O)CC1)c1ccc(Oc2ccc(C(F)(F)F)cc2)cc1`, the negative logarithm of the IC50 (pIC50) in assay [2] was 8.32; in assay [3], 8.77. In addition, the Ratio IC50 in assay [1] is 2.8.
Turning to `CS(=O)(=O)N(C[C@@H](C(=O)NO)N1CCOCC1)c1ccc(Oc2ccc(Cl)cc2)cc1`, the Ratio IC50 in assay [1] came to 2.8.
For the molecule `CS(=O)(=O)N(C[C@H](O)C(=O)NO)c1ccc(Oc2ccc(Cl)cc2)cc1`, the pIC50 in assay [2] was 7.46; in assay [3], 8.33. The Ratio IC50 in assay [1] was found to be 7.4.
On to `Cc1ccc(Oc2ccc(N(C[C@H](NC(C)C)C(=O)O)S(C)(=O)=O)cc2)cc1`, for which the pIC50 (in assay [2]; in assay [3]; against Interstitial collagenase) was less than 5.00 in each case.
For `Cc1ccc(Oc2ccc(N(C[C@H](Nc3ccccc3)C(=O)NO)S(C)(=O)=O)cc2)cc1`, the values for the pIC50 in assay [2] and in assay [3] were 7.89 and 9.28, respectively. In assay [1], the Ratio IC50 stood at 25.
For the molecule `CC(C)N(Cc1ccccc1)[C@@H](CN(c1ccc(Oc2ccc(C(F)(F)F)cc2)cc1)S(C)(=O)=O)C(=O)NO`, in assay [1], the Ratio IC50 was 4.1.
With `CS(=O)(=O)N(C[C@@H](C(=O)NO)N1CCC(O)CC1)c1ccc(Oc2ccc(C(F)(F)F)cc2)cc1`, the pIC50 in assay [2] was 8.24; in assay [3] it was 8.72. Besides, in assay [1], the Ratio IC50 was found to be 3.
Take `CC(=O)N1CCN([C@@H](CN(c2ccc(Oc3ccc(C(F)(F)F)cc3)cc2)S(C)(=O)=O)C(=O)NO)CC1`: the Ratio IC50 in assay [1] amounted to 1.8.
Turning to `Cc1ccc(Oc2ccc(N(C[C@H](NCc3cccnc3)C(=O)NO)S(C)(=O)=O)cc2)cc1`, the pIC50 in assay [2] was 7.77; in assay [3], 8.55. Besides, the Ratio IC50 in assay [1] came to 6.1.
Take `Cc1ccc(Oc2ccc(N(C[C@H](N)C(=O)NO)S(C)(=O)=O)cc2)cc1`: the Ratio IC50 in assay [1] worked out at 5.5.
Still for that read-out and setting: the same measure for `Cc1ccc(Oc2ccc(N(C[C@H](NCc3ccccc3)C(=O)NO)S(C)(=O)=O)cc2)cc1`: 28.4.
`Cc1ccc(Oc2ccc(N(C[C@H](Nc3ccc4ccccc4c3)C(=O)NO)S(C)(=O)=O)cc2)cc1`: in assay [2], the pIC50 is 5.85. Besides, the Ratio IC50 in assay [1] is 16.6.
Take `Cc1ccc(Oc2ccc(N(C[C@H](N[C@@H](C)c3ccccc3)C(=O)NO)S(C)(=O)=O)cc2)cc1`: the pIC50 was 7.92 in assay [2] and less than 5.00 on Interstitial collagenase. In assay [1], the Ratio IC50 amounted to 22.2.
Regarding `CC(C)N(CCNC(=O)OCc1ccccc1)[C@@H](CN(c1ccc(Oc2ccc(C(F)(F)F)cc2)cc1)S(C)(=O)=O)C(=O)NO`, the Ratio IC50 in assay [1] was determined as 9.
On to `CS(=O)(=O)N(C[C@H](O)C(=O)NO)c1ccc(Oc2ccc(C(F)(F)F)cc2)cc1`, for which the pIC50 is 6.86 in assay [2], 7.85 in assay [3] and less than 5.00 on Interstitial collagenase. The Ratio IC50 in assay [1] worked out at 9.9.
`Cc1ccc(Oc2ccc(N(C[C@H](N[C@H](C)c3ccccc3)C(=O)NO)S(C)(=O)=O)cc2)cc1` gave a pIC50 in assay [3] of 8.82. The Ratio IC50 in assay [1] is 16.
On to `CNC(=O)C1CCN([C@@H](CN(c2ccc(Oc3ccc(C(F)(F)F)cc3)cc2)S(C)(=O)=O)C(=O)NO)CC1`, for which the pIC50 in assay [2] was 8.26; in assay [3], 8.60. The Ratio IC50 in assay [1] is 2.2.
`COc1cccc(N[C@@H](CN(c2ccc(Oc3ccc(C)cc3)cc2)S(C)(=O)=O)C(=O)NO)c1`: the pIC50 against Interstitial collagenase is less than 5.00. Also, in assay [1], the Ratio IC50 was found to be 43.5.
Regarding `Cc1ccc(Oc2ccc(N(C[C@H](C(=O)NO)N3CCOCC3)S(C)(=O)=O)cc2)cc1`, the Ratio IC50 in assay [1] was determined as 4.5.
With `CC(C)N(C)[C@@H](CN(c1ccc(Oc2ccc(C(F)(F)F)cc2)cc1)S(C)(=O)=O)C(=O)NO`, the negative logarithm of the IC50 (pIC50) in assay [2] was 7.62; in assay [3], 8.06. Moreover, the Ratio IC50 in assay [1] was 2.7.
The molecule `Cc1ccc(Oc2ccc(N(C[C@H](Nc3ccc(F)cc3)C(=O)NO)S(C)(=O)=O)cc2)cc1` had a pIC50 in assay [3] of 8.89. Besides, the Ratio IC50 in assay [1] amounted to 49.2.
With `CS(=O)(=O)N1CCN([C@@H](CN(c2ccc(Oc3ccc(C(F)(F)F)cc3)cc2)S(C)(=O)=O)C(=O)NO)CC1`, the pIC50 in assay [2] is 8.00; in assay [3], 8.49. Besides, the Ratio IC50 in assay [1] stood at 3.1.
The like results for `Cc1ccc(Oc2ccc(N(C[C@@H](NC(C)C)C(=O)NO)S(C)(=O)=O)cc2)cc1` were, in that order, 6.75, 7.51 and 5.7.
The like results for `C[C@@H]1CN([C@@H](CN(c2ccc(Oc3ccc(Cl)cc3)cc2)S(C)(=O)=O)C(=O)NO)C[C@H](C)O1` were, in that order, 8.60, 9.34 and 5.4.
For the molecule `Cc1ccc(Oc2ccc(N(C[C@@H](C(=O)NO)N3C[C@@H](C)O[C@@H](C)C3)S(C)(=O)=O)cc2)cc1`, in assay [1], the Ratio IC50 came out at 4.1.
For the molecule `Cc1ccc(Oc2ccc(N(C[C@H](NCc3ccncc3)C(=O)NO)S(C)(=O)=O)cc2)cc1`, in assay [3], the pIC50 was 8.74. Moreover, the Ratio IC50 in assay [1] came to 5.3.
Consider `Cc1ccc(Oc2ccc(N(C[C@H](NCc3ccccn3)C(=O)NO)S(C)(=O)=O)cc2)cc1`, for which the Ratio IC50 in assay [1] stood at 3.6.
For the molecule `CC(C)N[C@@H](CN(c1ccc(Oc2ccc(C(F)(F)F)cc2)cc1)S(C)(=O)=O)C(=O)NO`, the results for the pIC50 (in assay [3]; against Interstitial collagenase) were 8.62 and less than 5.00, respectively. The Ratio IC50 in assay [1] was determined as 3.8.
For `C[C@@H]1CN([C@@H](CN(c2ccc(Oc3ccc(C(F)(F)F)cc3)cc2)S(C)(=O)=O)C(=O)NO)C[C@H](C)O1`, the pIC50 is 8.25 in assay [2] and 8.96 in assay [3]. The Ratio IC50 in assay [1] was determined as 5.1.
`Cc1ccc(Oc2ccc(N(C[C@H](Nc3cccc(Cl)c3)C(=O)NO)S(C)(=O)=O)cc2)cc1` gave a negative logarithm of the IC50 (pIC50) in assay [3] of 7.70. Moreover, the Ratio IC50 in assay [1] is 16.6.
On to `CS(=O)(=O)N(C[C@@H](C(=O)NO)N1CCC(c2ccccc2)CC1)c1ccc(Oc2ccc(C(F)(F)F)cc2)cc1`, for which the Ratio IC50 in assay [1] was found to be 2.7.
In the case of `CS(=O)(=O)N(C[C@@H](C(=O)NO)N1CCCCC1)c1ccc(Oc2ccc(C(F)(F)F)cc2)cc1`, the pIC50 in assay [3] was 8.64. Besides, the Ratio IC50 in assay [1] amounted to 3.3.
With `Cc1ccc(Oc2ccc(N(C[C@H](O)C(=O)NO)S(C)(=O)=O)cc2)cc1`, the pIC50 in assay [2] is 7.21; in assay [3], 8.11.
`Cc1ccc(Oc2ccc(N(C[C@H](NCC(C)C)C(=O)NO)S(C)(=O)=O)cc2)cc1`: the values for the pIC50 (in assay [2]; in assay [3]; against Interstitial collagenase) were 7.96, 8.89 and less than 5.00, respectively. In addition, in assay [1], the Ratio IC50 stood at 8.8.
Regarding `Cc1ccc(Oc2ccc(N(C[C@H](NC3CCCC3)C(=O)NO)S(C)(=O)=O)cc2)cc1`, the Ratio IC50 in assay [1] turned out to be 5.9.

The pIC50 is −log10 of the IC50, conventionally taken in molar units.
